In patent publication US12357552B2, “Hydroxyquinoline compounds and methods of use as pigment modifying agents” (priority 2021, dated 2025):
Like-named read-outs stand apart in the source and are kept apart here.

What was measured:
MNT-1 cells [1] = test: inhibition of melanin production in human melanoma MNT-1 cells; format: cell-based; settings: 3 days
Description: To assess melanogenesis inhibition within cells, the human melanoma MNT-1 cell line (CRL-3450 from ATCC), cultured and divided according to the recommended protocol, was subjected to varying concentrations of chloroxine (2) and the other hydroxyquinoline drugs. The MNT-1 cell line was chosen because it was previously used successfully for quantifying melanin synthesis (Hah et al., 2012). Frozen stocks (3.8×10^6 cells) of cells were thawed in a 37° C. water bath, then plated into three 10-cm plates containing 10 mL of MDEM+10% fetal bovine serum and 100 μL of 100× Penicillin/Streptomycin. When the cells became confluent, medium was aspirated, cells were rinsed with sterile phosphate-buffered saline (PBS), and then treated with 1 mL of 0.25% trypsin with 0.02% EDTA at 37° C. for 3 min. When the cells became loose, 4 mL of medium was added to neutralize the trypsin. FIG. 5 depicts the inhibition of melanin production in MNT-1 cells by chloroxine, an inhibitor of tyrosinase, at concentrations indicated. Cells were incubated with chloroxine for 3 days and then harvested, with melanin quantified after cell lysis, measuring absorbance at 405 nm. […]
Where Acmpd is the absorbance value for the test compound, and Ap and An are the absorbance values of the positive and negative controls, respectively. […]

MNT-1 cells [2] = test: viability assay in MNT-1 cell line; format: cell-based, human
Source text: Where Acmpd is the absorbance value for the test compound, and Ap and An are the absorbance values of the positive and negative controls, respectively. FIG. 6 depicts the reduction in melanin biosynthesis in MNT-1 cells by chloroxine, relative to the positive control phenylthiourea (PTU), a tyrosinase inhibitor commonly used as a melanin synthesis blocker. Other hydroxyquinoline drugs caused different effects in the MNT-1 cell line. At higher concentrations, the iodo-substituted compounds clioquinol (3) and iodoquinol (4) were toxic, with decreased cell counts in the viability assay.

[3] = solubility in aqueous solution under the tyrosinase assay conditions; settings: higher concentrations
mushroom tyrosinase [4] = target: mushroom tyrosinase (Agaricus bisporus, UniProt C7FF04); test: fluorescence-based tyrosinase assay with substrate PAP-AMC (monophenolase activity)
Description: Enzyme activity was measured using the fluorescent substrate PAP-AMC. […] Fluorescence spectroscopy was carried out on a Carey Eclipse spectrophotometer. Fluorescence intensity was measured at 6-second intervals in quartz cuvettes kept at 37° C. […] In vitro fluorescence assays using mushroom tyrosinase (Worthington Biochemicals) were performed in 50 mM sodium phosphate buffer, pH 7.4 with the fluorescent tyrosinase substrate, PAP-AMC (Biovision). Varying concentrations of inhibitors were used as indicated. Data represent the mean±SD of three independent experiments.
After 5 minute incubation, inhibitor was added as a solution in DMSO. After an additional 2 minute incubation, a DMSO solution of PAP-AMC (0.02 mL of 1 mM solution) was added and, after thoroughly mixing, the reaction was monitored by fluorescence (λ excitation=350 nm; λ emission=440 nm). Initial rates were calculated using the slope of the curve for the first ca. 10% of the reaction. The first 1 min of the reaction were not used owing to the usual induction period observed with tyrosinase. Inhibition assays were performed in triplicate trials. Non-linear regression and curve fitting were done using Prism software (Graphpad Inc). […] The experiment was performed in triplicate at pH 7.4 and data were plotted according to Lineweaver-Burk. Data represent the mean±SD of three independent experiments.

mushroom tyrosinase [5] = test: assessment of reversibility: residual tyrosinase activity after ultrafiltration, with or without exogenous copper sulfate; format: biochemical; settings: 5 μM inhibitor
Description: To gain further insight into the mode of action of the hydroxyquinoline drugs, residual enzyme activity was assessed after separation of the drug from the enzyme. This is generally done to assess whether the inhibitor acts in a reversible or irreversible manner. After incubation and measurement of tyrosinase activity, the drug nitroxoline (1) was separated from the reaction mixture in a Centricon centrifugal filter device, and enzymatic activity remeasured with fresh PAPAMC substrate.
When residual activity was measured after ultracentrifugation, less than 10% of the original activity remained (FIG. 4(b)). […]
To assess reversibility of enzyme inhibition, a reaction mixture containing 5 μM inhibitor was placed into Amicon Ultra centrifugal filters (10 K MWCO), concentrated at 4000 rpm for 10 minutes, followed by dilution with sodium phosphate buffer for a total of three cycles. If reconstitution of enzyme activity was being evaluated, exogenous copper sulfate was added to the remaining solution to a final concentration of 0.1 mM. Then fresh L-DOPA and PAP-AMC substrate was added and fluorescence change measured as previously described. […]

tyrosinase = settings: cited from earlier work

Chain of mushroom tyrosinase (Agaricus bisporus, UniProt C7FF04) (C7FF04 1-392): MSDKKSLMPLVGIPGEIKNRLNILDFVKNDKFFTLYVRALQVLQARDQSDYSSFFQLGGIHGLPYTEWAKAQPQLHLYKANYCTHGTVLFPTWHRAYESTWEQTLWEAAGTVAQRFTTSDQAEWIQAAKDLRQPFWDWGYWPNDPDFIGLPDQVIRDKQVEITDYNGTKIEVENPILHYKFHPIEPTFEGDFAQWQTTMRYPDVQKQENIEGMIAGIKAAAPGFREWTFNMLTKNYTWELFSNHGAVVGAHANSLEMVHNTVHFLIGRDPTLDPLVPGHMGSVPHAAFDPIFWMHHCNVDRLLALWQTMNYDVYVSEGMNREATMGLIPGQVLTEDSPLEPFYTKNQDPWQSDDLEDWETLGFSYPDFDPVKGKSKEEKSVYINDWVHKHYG

With `Oc1c(Cl)cc(Cl)c2cccnc12` [chloroxine] the “ability to block melanin production” value (MNT-1 cells [1]) was “dose-dependent”, the IC50 (MNT-1 cells [1]; Homo sapiens, 72 h, absorbance at 405 nm, read-out: IC50 value for blocking melanin synthesis) was roughly 1.5 µM and the “toxicity (cell counts in the viability assay)” value (shortened to “toxicity”) (MNT-1 cells [2]) was “not toxic”. The “solubility in aqueous solution” value [3] was “did not show evidence of insolubility” and the Ki (mushroom tyrosinase [4]) was roughly 12 µM.

With `O=[N+]([O-])c1ccc(O)c2ncccc12` [nitroxoline] the “enzyme activity after incubation of the concentrate with exogenous copper sulfate” value (mushroom tyrosinase [5]; after ultrafiltration, 0.1 mM copper sulfate) was “substantial recovery of original enzyme activity”, the “residual activity after ultracentrifugation, of the original activity” value (mushroom tyrosinase [5]; no exogenous copper sulfate) was “less than 10%” and the “toxicity” value (MNT-1 cells [2]) was “not toxic”. The Ki (mushroom tyrosinase [4]) was 0.9 µM and the “type of enzyme inhibition (Lineweaver-Burk)” value (mushroom tyrosinase [4]; varying substrate and inhibitor concentrations, pH 7.4) was “competitive inhibitor”.

For `Oc1c(I)cc(Cl)c2cccnc12` [clioquinol], the “toxicity” value (MNT-1 cells [2]) was “toxic” and the Ki (mushroom tyrosinase [4]) was 367 µM.

For `O=c1cc(CO)occ1O` [kojic acid], the inhibition of tyrosinase (tyrosinase) is listed as “high micromolar”.

For iodoquinol, the “toxicity” value (MNT-1 cells [2]; MNT-1 cells, higher concentrations) was “toxic”, the “solubility in aqueous solution” value [3] was “less soluble in aqueous solution” and the “inhibitory constant (in words)” value (mushroom tyrosinase [4]; monophenolase activity of tyrosinase) was “high micromolar”. It also gave a Ki (mushroom tyrosinase [4]; mushroom tyrosinase, PAP-AMC substrate, pH 7.4) of 1290 µM.
